The values that follow come from PubChem BioAssay AID1963850 (Molecular Pharmacology Branch, DTP, NCI, 2024).

The experiment has as its system 192522-019-R-J2-PDC complex tumor spheroid viability. In words: Anticancer human tumor 192522-019-R-J2-PDC patient-derived colon adenocarcinoma cell line growth inhibition [POLQ]. Particulars: for viability, T/C: stronger effect = lower value. Here is the method: Multicellular complex tumor spheroid response to Polymerase (POL) inhibitors (novobiocin, ART-558, RP6685) in combination with a variety of drugs and investigational agents in selected tumor cell lines
The POL inhibitors (novobiocin, ART-558, and RP6685) were evaluated both individually and in combination with standard of care and investigational anticancer small molecules within a complex spheroid model of solid tumors. . Complex spheroids include a stromal component modeled by human endothelial cells (HUVEC) and fibroblasts modeled by human mesenchymal stem cells (MSCs). The concentration ranges selected for each drug and investigational agent were based upon clinically achievable concentrations if the clinical Cmax of the agent was known.
Compounds. The drugs and investigational agents: novobiocin (NSC847541), ART-558 (NSC835418), RP-6685 (NSC848927), peposertib (NSC802822), ceralasertib (NSC780249), elimusertib (NSC800525), camonsertib (NSC841442), AZD-1390 (NSC803789), olaparib (NSC753686), talazoparib (NSC767125), rucaparib (NSC756644), sotorasib (NSC818433), MRTX-1133 (NSC836407), SN-38 (NSC673596), topotecan (NSC609699), epotoside (NSC141540), doxorubicin (NSC123127), gemcitabine (NSC613327), 5-fluorouracil (NSC19893), paclitaxel (NSC125973), vemurafenib (NSC761431), MSA-2 (NSC828583), SN-011 (NSC837082), adavosertib (NSC754352), prexasertib (NSC758257), carboplatin (NSC241240) and oxaliplatin (NSC266046), were obtained from the National Cancer Institute (NCI) Developmental Therapeutics Program Chemical Repository (21). The FDA-approved anticancer drug set is available from the Developmental Therapeutics Program at https://dtp.cancer.gov/organization/dscb/obtaining/. […] The stock solutions were prepared in dimethyl sulfoxide (DMSO, Sigma-Aldrich, St. Louis, MO, cat. D2650), except for the platinum compounds which were prepared in saline (Quality Biological, Gaithersburg, MD, cat. 114-055-101), at 800-fold the tested concentration and stored at -70 degrees C prior to their use. All drugs and investigational agents were tested over a range starting from a high concentration at or near the clinical Cmax and decreasing in half-log increments. If the clinical Cmax for an agent had not been determined, the highest concentration tested was 10 microM, except for SN-38, which was tested at a high concentration of 1 microM.
Cell Culture. All cells were maintained in an incubator at 37 degrees C and 5% CO2 with 95% humidity. The PDC lines were cultured according to standard operating procedures established by the NCI PDMR (https://pdmr.cancer.gov). Table 3 of the manuscript, lists the cell lines along with the number of the three cell types plated to form the mct-spheroids and media for tumor cell growth. After thawing, all PDC lines, except 997537-175-T-J1-PDC and 415267-285-R-J2-PDC, were cultured in Matrigel-coated flasks prepared with a working solution of 1X Ham's F-12 nutrient mix, without supplementation (Thermo Fisher Scientific, cat. 11765054), 100 U/mL penicillin-streptomycin (Thermo Fisher Scientific, cat. 15140122), and 2.5% Matrigel (Corning Inc., Corning, NY, cat. 354248) for the first three passages. The two PDC lines 997537-175-T-J1-PDC and 415267-285-R-J2-PDC were cultured on uncoated flasks. The 857933-349-R-J2-PDC line was cultured in 6C/Colon 1B media containing advanced DMEM/F-12 (Thermo Fisher Scientific, cat. 12634028), 10 mM HEPES (Thermo Fisher Scientific, cat. 15630080), 1X GlutaMAX supplement (Thermo Fisher Scientific, cat. 35050061), 0.1 mg/mL primocin (InvivoGen, San Diego, CA, cat. ant-pm-2), 10% defined fetal bovine serum, heat inactivated (HyClone Laboratories Inc., Logan, UT, cat. SH30070.03HI), 50% L-WRN conditioned media (ATCC, cat. CRL-3276), 1.25 mM N-Acetyl-L-cysteine (Sigma-Aldrich, cat. A9165), 10 mM nicotinamide (Sigma-Aldrich, cat. N0636), 1X B-27 supplement (Thermo Fisher Scientific, cat. 17504044), 1X N-2 supplement (Thermo Fisher Scientific, cat. […]

The mark [1] stands for this setting: compound alone, run of 11/06/2023.

Values joined by “and” are separate entries in the source; they are usually repeats but may differ in a detail not shown here. Equal values may be shown once. A value given as a limit tells only on which side of the number the result lay.
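Further: spheroids exposed to drugs for seven days before reading.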
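Wherever viability, T/C is given: 100% = DMSO vehicle control viability in luminescence.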

A word on the viability, T/C: it is the ratio of treated to control. For orientation: IC50 means the concentration at which inhibition is half-maximal. Turning to `COc1cc(C2c3cc4c(cc3C(OC3OC5COC(C)OC5C(O)C3O)C3COC(=O)C23)OCO4)cc(OC)c1O` (centres undefined), the viability, T/C is 101% and 100% and 97.1% (compound 0.0316 µM); 96.5% and 97% and 97.3% (compound 0.1 µM); 86.6% and 86% and 84.8% (compound 1 µM); 59.9% (2×) and 65.3% (compound 3.16 µM); 75.5% and 79.4% and 55.1% (compound 10 µM). Besides, the 50% inhibitory concentration (IC50) (curve of compound) was above 10 µM.

Consider `COc1ccc([C@@H](O)c2cc(-c3ncnc4cc(N5CCOCC5)ccc34)c(F)cc2Cl)nn1`, for which the viability, T/C (compound 0.0316 µM) was 105% and 101% and 113%; the viability, T/C (compound 0.1 µM) was 93.6% and 91.3% and 99.9%; the viability, T/C (compound 0.316 µM) is 100% and 94.7% and 106%; the viability, T/C (compound 1 µM) is 77.6% and 101% and 102%; the viability, T/C (compound 3.16 µM) is 83% and 75.1% and 92.5%; the viability, T/C (compound 10 µM) is 54.5% and 64.9% and 65.9%. Further, for the setting “curve of compound”, the concentration for half-maximal inhibition (IC50) is above 10 µM.

For `COc1cccc(OCCCN)c1-c1cc(Nc2cnc(C#N)cn2)n[nH]1`, the viability, T/C (compound 0.00316 µM) was 96.6% and 99.2% and 101%; the viability, T/C (compound 0.0316 µM) is 33% and 47.4% and 44%; the viability, T/C (compound 0.1 µM) was 32.7% and 40.1% and 36.7%; the viability, T/C (compound 0.316 µM) was 32.7% and 38.2% and 35.7%; the viability, T/C (compound 1 µM) was 28.8% and 37.6% and 34.5%. Also, where the note is “curve of compound”, the half-maximal inhibitory concentration (IC50) was 0.0153 µM and 0.0294 µM and 0.0264 µM.

For `COc1cccc2c1C(=O)c1c(O)c3c(c(O)c1C2=O)CC(O)(C(=O)CO)CC3OC1CC(N)C(O)C(C)O1` (centres undefined), the viability, T/C runs as follows: (compound 0.0316 µM) 103% and 101% and 100%; (compound 0.1 µM) 82.1% and 80.8% and 80.6%; (compound 0.316 µM) 72% and 89.1% and 66.9%; (compound 1 µM) 89.1% and 74.3% and 83.1%; (compound 3.16 µM) 69.1% and 72.3% and 65.9%; (compound 10 µM) 59.9% and 62.4% and 48.1%. Also, the IC50 (curve of compound) is above 10 µM.

For the molecule `Cc1cccc(N(C)C(=O)C2C(O)CCN2c2nc(C)cc(C(F)(F)F)c2C#N)c1` (centres undefined), the viability, T/C was 107% [middle of 13 runs] (compound 0.0316 µM); 108% [middle of 13 runs] (compound 0.1 µM); 110% [middle of 13 runs] (compound 0.316 µM); 106% [middle of 13 runs] (compound 1 µM); 106% [middle of 13 runs] (compound 3.16 µM); 110% [middle of 13 runs] (compound 10 µM). The 50% inhibitory concentration (IC50) is above 10 µM (compound alone, run of 10/31/2023) and above 10 µM under setting [1].

On to `Cn1ncnc1[C@H]1c2n[nH]c(=O)c3cc(F)cc(c23)N[C@@H]1c1ccc(F)cc1`, for which the viability, T/C is 107% and 103% and 109% (compound 0.000316 µM); 95.2% and 97.2% and 98.7% (compound 0.001 µM); 95.3% and 101% and 95.1% (compound 0.00316 µM); 107% and 103% and 104% (compound 0.01 µM); 103% and 104% and 98.2% (compound 0.0316 µM); 91.1% and 96.3% and 85.5% (compound 0.1 µM). Also, the IC50 (curve of compound) was above 0.1 µM.

`Nc1ccc(C#CCN(C(=O)Cc2ncc(C(F)(F)F)cc2C(F)(F)F)c2ccc(F)cc2)nn1`: the viability, T/C runs as follows: (compound 0.0316 µM) 104% [middle of 13 runs]; (compound 0.1 µM) 106% [middle of 13 runs]; (compound 0.316 µM) 106% [middle of 13 runs]; (compound 1 µM) 105% [middle of 13 runs]; (compound 3.16 µM) 105% [middle of 13 runs]; (compound 10 µM) 107% [middle of 13 runs]. Besides, the half-inhibitory concentration (IC50) under setting [1] was above 10 µM.

For `Nc1ccn(C2OC(CO)C(O)C2(F)F)c(=O)n1` (centres undefined), the viability, T/C by setting is: (compound 0.0316 µM) 100% and 102% and 104%; (compound 0.1 µM) 83.2% and 86.6% and 83.9%; (compound 0.316 µM) 72.9% and 76.2% and 66.8%; (compound 1 µM) 78.3% and 79.2% and 66%; (compound 3.16 µM) 71.9% and 82% and 62.9%; (compound 10 µM) 50.5% and 62.5% and 58.2%. The IC50 (curve of compound) was above 10 µM.

For `O=C(c1cc(Cc2n[nH]c(=O)c3ccccc23)ccc1F)N1CCN(C(=O)C2CC2)CC1`, the viability, T/C was 99.6% and 98.7% and 100% (compound 0.0316 µM); 99% and 96.3% and 98.5% (compound 0.1 µM); 96.2% and 100% and 101% (compound 0.316 µM); 91.8% and 106% and 102% (compound 1 µM); 97.4% and 116% and 113% (compound 3.16 µM); 102% and 100% and 101% (compound 10 µM). In addition, under “curve of compound”, the 50% inhibitory concentration (IC50) was above 10 µM.

As for `O=c1[nH]cc(F)c(=O)[nH]1`, the viability, T/C (compound 0.0316 µM) was 92.8% and 104% and 97.2%; the viability, T/C (compound 0.1 µM) is 88.4% and 98% and 84.1%; the viability, T/C (compound 0.316 µM) was 81.6% and 85.3% and 79.5%; the viability, T/C (compound 1 µM) is 79.2% and 93.5% and 73.6%; the viability, T/C (compound 3.16 µM) was 86.3% and 94.5% and 74.5%; the viability, T/C (compound 10 µM) is 76.5% and 86% and 63.1%. Further, the IC50 (curve of compound) was above 10 µM.
